Where a name gives a salt, the structure may show the parent alone.
Columns and labels:
Format in all cases: cell-based, human
caspase-9 [1] = experiment: caspase-9 activity (Ac-LEHD-AMC) in K562 cells
Method: (§1) The cells are lyzed and the caspase-9 activities are measured using 10 μg of proteins and Ac-LEHD-AMC. The fluorescence emission at 460 nm resulting from the release of AMC is then recorded.

ImaR cells [2] = experiment: western blot of apoptosis and autophagy markers, ImaR cells; conditions: 24 hours; for LC3 cleavage (LC3-I into LC3-II): AICAR 1 mM, 82, 86 at 2.5 μM, 15, 23, 191, 49 at 10 μM; for expression of p62/SQSTM1: AICAR 1 mM, 82, 86, 112 at 2.5 μM, 15, 23, 191 at 10 μM
Method: (§2) The cells are lyzed and 35 μg of proteins are separated by SDS-PAGE (12 or 14% polyacrylamide gel) and analyzed by western blot with antibodies specific to each of the markers.

ImaR cells [3] = experiment: flow cytometry analysis of the cell cycle, ImaR cells; conditions: for proportion of cells in the G2/M phase: 24 hours, 82, 86, 112 at 2.5 μM, 15, 23, 191, 49 at 10 μM; for cells in phase G0/G1 / cells in the subG1 phase: 24 hours, imatinib 3 μM, 112 at 2.5 μM, 15, 23, 49 at 10 μM
Method: (§3) The x-axis of the graph of FIG. 9 corresponds to the quantity of DNA marked with propidium iodide while the y-axis corresponds to the number of cells. […] The nucleii are marked with propidium iodide, then the proportion of cells in the different phases of the cell cycle (subG1, G0/G1, S, G2/M) is determined.

caspase-3 = caspase-3 activity (Ac-DEVD-AMC) in ImaR cells; conditions: 24 hours, imatinib 3 μM, AICAR 1 mM, 112 at 2.5 μM, 15, 23, 49 at 10 μM
Method: The cells are lyzed and 10 μg of proteins are placed in the presence of Ac-DEVD-AMC in a 96-well plate. The fluorescence emission at 460 nm resulting from the release of AMC is then recorded.

K562 cells [4] = experiment: flow cytometry analysis of the cell cycle, K562 cells; conditions: for proportion of cells in the G2/M phase: 24 hours, 82, 86, 112 at 2.5 μM, 15, 23, 191, 49 at 10 μM; for cells in phase G0/G1 / cells in the subG1 phase: 24 hours, imatinib 3 μM, 112 at 2.5 μM, 15, 23, 49 at 10 μM
Method: as §3, with “nuclei” for “nucleii”

K562 cells [5] = experiment: cell viability (XTT) of imatinib-sensitive K562 cells; conditions: for viability at 500 µM / IC50 / efficacy in dose-response experiment (number of viable cells): K562; for viability at 500 µM: 0.5 mM, 24 hours, read-out: percentage of viable cells; for viability at 500 µM / IC50: XTT; for IC50: dose-response 5, 10, 25 and 50 μM, 24 or 48 hours, Example 1 (Table 1 codes); for efficacy in dose-response experiment (number of viable cells): 5, 10, 25 and 50 μM, compounds effective at concentrations as low as 5 μM
Method: (§4) The K562 leukemic cell line is obtained from the pleural effusion of a patient with CML. This line is a good model for studying this disease. […] The K562 and ImaR cells are cultivated at 37° C. under 5% CO2 in an RPMI 1640 medium containing 5% fetal bovine serum and supplemented with sodium pyruvate and antibiotics (penicillin-streptomycin).
(§5) FIGS. 1 to 4 reflect the study of the cell viability.
(§6) After the addition of XTT reagent, the absorbance is measured at 490 nm.
as §6, §6
After adding XTT reagent, the absorbance is measured at 490 nm.

ImaR cells [6] = experiment: cell viability (XTT) of imatinib-resistant ImaR cells; conditions: for efficacy in dose-response experiment (number of viable cells): 5, 10, 25 and 50 μM, compounds effective at concentrations as low as 5 μM; for viability at 500 µM / IC50: Homo sapiens, XTT; for viability at 500 µM: 0.5 mM, 24 hours, read-out: percentage of viable cells; for IC50: dose-response 5, 10, 25 and 50 μM, 24 or 48 hours, Example 1 (Table 1 codes)
Method: as §4, §5, §6, §6

K562 cells [7] = experiment: western blot of apoptosis and autophagy markers, K562 cells; conditions: for LC3 cleavage (LC3-I into LC3-II) / expression of p62/SQSTM1: AICAR 1 mM; for LC3 cleavage (LC3-I into LC3-II): 82, 86 at 2.5 μM, 15, 23, 191, 49 at 10 μM; for type of programmed cell death induced: conclusion of Example 1, K562 and ImaR cells; for expression of p62/SQSTM1: 82, 86, 112 at 2.5 μM, 15, 23, 191 at 10 μM
Method: as §2

mTOR pathway [8] = experiment: western blot of 4E-BP1 phosphorylation (mTOR pathway), ImaR cells; conditions: 24 hours, imatinib 3 μM, AICAR 1 mM, 82, 112 at 2.5 μM, 15, 23, 191 at 10 μM
Method: (§7) The cells are lyzed and 30 μg of proteins are separated by SDS-PAGE (13% polyacrylamide gel) and analyzed by western blot with an antibody specific to the 4E-BP1 protein. The delayed gel migration observed reflects the level of phosphorylation of 4E-BP1.

cathepsin-B [9] = experiment: cathepsin-B activity (z-RR-AMC) in K562 cells; conditions: 24 hours, AICAR 1 mM, 82, 112 at 2.5 μM, 15, 23, 191 at 10 μM
Method: (§8) The cells are lyzed and 5 μg of proteins are placed in the presence of z-RR-AMC in a 96-well plate. The fluorescence emission at 460 nm resulting from the release of AMC is then recorded.

cathepsin-B [10] = experiment: cathepsin-B activity (z-RR-AMC) in ImaR cells; conditions: 24 hours, AICAR 1 mM, 82, 112 at 2.5 μM, 15, 23, 191 at 10 μM
Method: as §8

mTOR pathway [11] = experiment: western blot of 4E-BP1 phosphorylation (mTOR pathway), K562 cells; conditions: 24 hours, imatinib 3 μM, AICAR 1 mM, 82, 112 at 2.5 μM, 15, 23, 191 at 10 μM
Method: as §7

caspase-9 [12] = experiment: caspase-9 activity (Ac-LEHD-AMC) in ImaR cells; conditions: 24 hours, imatinib 3 μM, 112 2.5 μM, 15 and 23 10 μM
Method: as §1

IC50 (K562 cells [5]; Homo sapiens) | Structure (SMILES) | LC3 cleavage (LC3-I into LC3-II) (ImaR cells [2]) | proportion of cells in the G2/M phase (ImaR cells [3]) | cells in phase G0/G1 (ImaR cells [3]) | cells in the subG1 phase (ImaR cells [3]) | proportion of cells in the G2/M phase (K562 cells [4]) | cells in phase G0/G1 (K562 cells [4]) | cells in the subG1 phase (K562 cells [4]) | viability at 500 µM (K562 cells [5]; Homo sapiens) | efficacy in dose-response experiment (number of viable cells) (K562 cells [5]) | efficacy in dose-response experiment (number of viable cells) (ImaR cells [6]) | viability at 500 µM (ImaR cells [6]) | IC50 (ImaR cells [6]) | LC3 cleavage (LC3-I into LC3-II) (K562 cells [7]; K562, 24 hours) | type of programmed cell death induced (K562 cells [7]) | expression of p62/SQSTM1 (ImaR cells [2]) | increase in the cathepsin-B activity (factor) (cathepsin-B [9]) | increase in the cathepsin-B activity (factor) (cathepsin-B [10]) | phosphorylation of 4E-BP1 (mTOR pathway [11]) | expression of p62/SQSTM1 (K562 cells [7]; K562, 24 hours) | other results
~10 µM | CCOC(=O)C#Cc1c(C(=O)OCC)nnn1[C@@H]1O[C@H](COC(C)=O)[C@@H](OC(C)=O)[C@H]1OC(C)=O [Compound 49, 1′-(4-ethoxycarbonyl-5-ethyl propiolate-[1,2,3]-triazol-1-yl)-2′,3′,5′-tri-O-acetyl-β-D-ribofuranose] | cleaved | increase | reduction | very pronounced accumulation | increase | reduction | very pronounced accumulation | < 10% | particularly effective | particularly effective | < 10% | ~10 µM | cleaved | combination of the two types of mechanisms | – | – | – | – | – | pathway relaying the induced apoptosis (caspase-9 [1]; conclusion of Example 1, K562 and ImaR cells): intrinsic pathway; PARP cleavage (fragment at 85 kDa) (ImaR cells [2]; imatinib 3 μM, 112 at 2.5 μM, 15, 23, 49 at 10 μM): appearance of the characteristic cleavage fragment at 85 kDa; increase in the caspase-3 activity (factor with respect to the control) (caspase-3): increase; PARP cleavage (fragment at 85 kDa) (K562 cells [7]; K562, 24 hours, imatinib 3 μM, 112 at 2.5 μM, 15, 23, 49 at 10 μM): appearance of the characteristic cleavage fragment at 85 kDa
~2.5 µM | CCOC(=O)c1nnn([C@@H]2O[C@H](COC(C)=O)[C@@H](OC(C)=O)[C@H]2OC(C)=O)c1-c1cccs1 [Compound 82, 1′-(4-ethoxycarbonyl-5-(2-thienyl)-[1,2,3]-triazol-1-yl)-2′,3′,5′-tri-O-acetyl-β-D-ribofuranose] | cleaved | increase | – | – | increase | – | – | < 10% | particularly effective | particularly effective | < 10% | ~2.5 µM | cleaved | autophagy alone | increase in the expression | around 2 | around 2 | total reduction | increase in the expression | phosphorylation of 4E-BP1 (mTOR pathway [8]): total reduction
~10 µM | CCOC(=O)c1nnn(C2OC(COC(C)=O)C(OC(C)=O)C(OC(C)=O)C2OC(C)=O)c1I [Compound 191, 1′-(4-ethoxycarbonyl-5-iodo-[1,2,3]-triazol-1-yl)-2′,3′,4′,6′-tetra-O-acetyl-β-D-glucopyranose] | cleaved | – | – | – | – | – | – | < 10% | particularly effective | particularly effective | < 10% | ~10 µM | cleaved | autophagy alone | increase in the expression | around 2 | around 2 | – | increase in the expression | –
– | Cc1ccc(NC(=O)c2ccc(CN3CCN(C)CC3)cc2)cc1Nc1nccc(-c2cccnc2)n1 [imatinib, imatinib mesylate, reference compound] | – | – | not observed | not observed | – | increase | small fraction of cells is also accumulated | – | – | – | – | – | – | – | – | – | – | totally inhibits | – | caspase-9 activity (caspase-9 [1]; K562, 24 hours, imatinib 3 μM, 112 2.5 μM, 15 and 23 10 μM): strong increase; cytotoxicity at 1 µM (K562 cells [5]; Homo sapiens, K562, 48 h, read-out: cell viability loss): > 50%; cell viability (ImaR cells [6]; imatinib 1 μM, 48 hours): affected only slightly; caspase-9 activity (caspase-9 [12]): not the case

Reference: US9173892B2, “Acadesine derivatives, products and compositions including same, therapeutic uses thereof, and methods for synthesizing same” (Universite Nice Sophia Antipolis, priority 2011, dated 2015)
